Where “and” joins values, the source holds several entries; their conditions need not be identical. Identical values can stand only once.
Key:
Assay type in all cases: in vivo
[1] = tested on: Common Chickweed; assay: pre-emergence herbicide test; settings: pre-emergence, 0.25 lb/A; read-out: % plant inhibition
Protocol: (§1) Topsoil was placed in an aluminum pan and compacted to a depth of 1.3 to 1.6 cm from the top of the pan. On the top of the soil was placed a predetermined number of seeds of each of several monocotyledonous and dicotyledonous annual plant species and/or vegetative propagules of various perennial plant species. The pan was then level filled with a cover layer of topsoil to which was added a known amount of active ingredient either prior to or after application of the cover layer. The active ingredient was dissolved or suspended in an organic solvent, e.g., acetone, or water as carrier for application to the cover layer. The pans were moved to a greenhouse bench where they were thereafter watered from below as needed to give adequate moisture for germination and growth. In some cases, an initial overhead irrigation of 1/4 inch of water was applied immediately after treatment.
(§2) Approximately 14 days after seeding and treating, the pans were observed and the results (% inhibition) were recorded.
(§3) The tables below summarize the results of the pre-emergence herbicidal activity tests of compounds of this invention tested with warm season plants (Tables 2a-2d) and cool season plants (Tables 3a and 3b). The herbicidal rating shown in these tables is the percent inhibition of each plant species. The plant species usually regarded as weeds are identified in the tables by single letter headings and crop species identified by two letter headings both headings being above the columns in accordance with the following legend: […]

[2] = tested on: Wheat; assay: pre-emergence herbicide test; settings: Triticum aestivum, pre-emergence, 0.25 lb/A; read-out: % plant inhibition
Protocol: as §1, §2, §3

[3] = tested on: Wild Oats; assay: pre-emergence herbicide test; settings: Avena fatua, pre-emergence, 0.25 lb/A; read-out: % plant inhibition
Protocol: as §1, §2, §3

[4] = tested on: Downy Brome; assay: pre-emergence herbicide test; settings: Bromus tectorum, pre-emergence, 0.25 lb/A; read-out: % plant inhibition
Protocol: as §1, §2, §3

[5] = tested on: Velvetleaf; assay: pre-emergence herbicide test; settings: 0.25 lb/A; for inhibition at 280.212 g/ha: Abutilon theophrasti, pre-emergence, read-out: % plant inhibition
Protocol: as §1, §2, §3

[6] = tested on: Seedling Johnsongrass; assay: pre-emergence herbicide test; settings: 0.25 lb/A
Protocol: as §1, §2, §3

[7] = tested on: Giant Foxtail; assay: pre-emergence herbicide test; settings: 0.25 lb/A; for inhibition at 280.212 g/ha: Setaria faberi, pre-emergence, read-out: % plant inhibition
Protocol: as §1, §2, §3

[8] = tested on: Blackgrass; assay: pre-emergence herbicide test; settings: Alopecurus myosuroides, pre-emergence, 0.25 lb/A; read-out: % plant inhibition
Protocol: as §1, §2, §3

[9] = tested on: Rape; assay: pre-emergence herbicide test; settings: pre-emergence, 0.25 lb/A; read-out: % plant inhibition
Protocol: as §1, §2, §3

[10] = tested on: Corn; assay: pre-emergence herbicide test; settings: 0.25 lb/A; for inhibition at 280.212 g/ha: Zea mays, pre-emergence, read-out: % plant inhibition
Protocol: as §1, §2, §3

[11] = tested on: Barnyardgrass; assay: pre-emergence herbicide test; settings: 0.25 lb/A
Protocol: as §1, §2, §3

[12] = tested on: Green Foxtail; assay: pre-emergence herbicide test; settings: Setaria viridis, pre-emergence; 0.25 lb/A; read-out: % plant inhibition
Protocol: as §1, §2, §3

[13] = tested on: Birdseye Speedwell; assay: pre-emergence herbicide test; settings: pre-emergence, 0.25 lb/A; read-out: % plant inhibition
Protocol: as §1, §2, §3

[14] = tested on: Bedstraw Catchweed; assay: pre-emergence herbicide test; settings: Galium aparine, pre-emergence, 0.25 lb/A; read-out: % plant inhibition
Protocol: as §1, §2, §3

[15] = tested on: Soybean; assay: post-emergence herbicide test; settings: Glycine max, post-emergence, 0.25 lb/A; read-out: % plant inhibition
Source text: (§4) Topsoil was placed in aluminum pans having holes in the bottom and compacted to a depth of 1.3 to 1.6 cm from the top of the pan. A predetermined number of seeds of each of several dicotyledonous and monocotyledonous annual plant species and/or vegetative propagules for the perennial plant species were placed on the soil and pressed into the soil surface. The seeds and/or vegetative propagules were covered with soil and leveled. The pans were then placed on a bench in the greenhouse and watered either from overheard irrigation or by subirrigation as needed. After the plants reach the desired age (two to three weeks), each pan, is removed individually to a spraying chamber and sprayed by means of an atomizer, operating at a spray pressure of 170.3 kPa […] at the application rates noted. In the spray solution was an amount of an emulsifying agent mixture to give a spray solution or suspension which contains about 0.4% by volume of the emulsifier. The spray solution or suspension contained a sufficient amount of the candidate chemical in order to give application rates of the active ingredient corresponding to those shown in Tables 4 and 5, while applying a total amount of solution or suspension equivalent to 1870 L/Ha (200 gallons/acre). […] The post-emergent herbicidal activity shown in these tables is the percent inhibition of each plant species. Testing with warm season and cool season plants is shown in tables 4a-4d and […], respectively.

[16] = tested on: Common Chickweed; assay: post-emergence herbicide test; settings: post-emergence, 0.25 lb/A; read-out: % plant inhibition
Source text: as §4

[17] = tested on: Wheat; assay: post-emergence herbicide test; settings: Triticum aestivum, post-emergence, 0.25 lb/A; read-out: % plant inhibition
Source text: as §4

[18] = tested on: Wild Oats; assay: post-emergence herbicide test; settings: Avena fatua, post-emergence, 0.25 lb/A; read-out: % plant inhibition
Source text: as §4

[19] = tested on: Downy Brome; assay: post-emergence herbicide test; settings: Bromus tectorum, post-emergence, 0.25 lb/A; read-out: % plant inhibition
Source text: as §4

[20] = tested on: Velvetleaf; assay: post-emergence herbicide test; settings: Abutilon theophrasti, post-emergence, 0.25 lb/A; read-out: % plant inhibition
Source text: as §4

[21] = tested on: Cocklebur; assay: post-emergence herbicide test; settings: Xanthium strumarium, post-emergence, 0.25 lb/A; read-out: % plant inhibition
Source text: as §4

[22] = tested on: Seedling Johnsongrass; assay: post-emergence herbicide test; settings: Sorghum halepense, post-emergence, 0.25 lb/A; read-out: % plant inhibition
Source text: as §4

[23] = tested on: Giant Foxtail; assay: post-emergence herbicide test; settings: Setaria faberi, post-emergence, 0.25 lb/A; read-out: % plant inhibition
Source text: as §4

[24] = tested on: Blackgrass; assay: post-emergence herbicide test; settings: Alopecurus myosuroides, post-emergence, 0.25 lb/A; read-out: % plant inhibition
Source text: as §4

[25] = tested on: Rape; assay: post-emergence herbicide test; settings: post-emergence, 0.25 lb/A; read-out: % plant inhibition
Source text: as §4

[26] = tested on: Corn; assay: post-emergence herbicide test; settings: Zea mays, post-emergence, 0.25 lb/A; read-out: % plant inhibition
Source text: as §4

[27] = tested on: Barnyardgrass; assay: post-emergence herbicide test; settings: Echinochloa crus-galli, post-emergence, 0.25 lb/A; read-out: % plant inhibition
Source text: as §4

[28] = tested on: Morning Glory; assay: post-emergence herbicide test; settings: Ipomoea, post-emergence, 0.25 lb/A; read-out: % plant inhibition
Source text: as §4

[29] = tested on: Green Foxtail; assay: post-emergence herbicide test; settings: Setaria viridis, post-emergence, 0.25 lb/A; read-out: % plant inhibition
Source text: as §4

[30] = tested on: Birdseye Speedwell; assay: post-emergence herbicide test; settings: post-emergence, 0.25 lb/A; read-out: % plant inhibition
Source text: as §4

[31] = tested on: Bedstraw Catchweed; assay: post-emergence herbicide test; settings: Galium aparine, post-emergence, 0.25 lb/A; read-out: % plant inhibition
Source text: as §4

[32] = tested on: Soybean; assay: pre-emergence herbicide test; settings: Glycine max, pre-emergence, 0.25 lb/A; read-out: % plant inhibition
Protocol: as §1, §2, §3

[33] = tested on: Cocklebur; assay: pre-emergence herbicide test; settings: Xanthium strumarium, pre-emergence, 0.25 lb/A; read-out: % plant inhibition
Protocol: as §1, §2, §3

[34] = tested on: Morning Glory; assay: pre-emergence herbicide test; settings: 0.25 lb/A
Protocol: as §1, §2, §3

Row | SMILES | inhibition at 280.212 g/ha [1] [%] | inhibition at 280.212 g/ha [2] [%] | inhibition at 280.212 g/ha [3] [%] | inhibition at 280.212 g/ha [4] [%] | inhibition at 280.212 g/ha [5] [%] | % plant inhibition [7] | inhibition at 280.212 g/ha [7] [%] | inhibition at 280.212 g/ha [8] [%] | inhibition at 280.212 g/ha [9] [%] | inhibition at 280.212 g/ha [10] [%] | inhibition at 280.212 g/ha [12] [%] | inhibition at 280.212 g/ha [13] [%] | inhibition at 280.212 g/ha [14] [%] | inhibition at 280.212 g/ha [15] [%] | inhibition at 280.212 g/ha [16] [%] | inhibition at 280.212 g/ha [17] [%] | inhibition at 280.212 g/ha [18] [%] | inhibition at 280.212 g/ha [19] [%] | inhibition at 280.212 g/ha [20] [%] | inhibition at 280.212 g/ha [21] [%] | other results
1 | COC(=O)c1cc(-c2nn(C)c(C(F)(F)F)c2C)c(F)cc1Cl [Compound 18] | 100 | 0 | 80 | 85 | 98 | 100% and 99% | 95 | 95 | 100 | 15 | 100 | 100 | 100 | 40 | 35 | 7 | 20 | 25 | 90 | 65 | % plant inhibition [5]: 100%; % plant inhibition [6]: 95% and 85%; inhibition at 280.212 g/ha ([6]; Sorghum halepense, pre-emergence, read-out: % plant inhibition): 90%; % plant inhibition [11]: 99% and 93%; inhibition at 280.212 g/ha ([11]; Echinochloa crus-galli, pre-emergence, read-out: % plant inhibition): 95%; inhibition at 280.212 g/ha [22]: 35%; inhibition at 280.212 g/ha [23]: 5%; inhibition at 280.212 g/ha [24]: 20%; inhibition at 280.212 g/ha [25]: 15%; inhibition at 280.212 g/ha [26]: 15%; inhibition at 280.212 g/ha [27]: 5%; inhibition at 280.212 g/ha [28]: 50%; inhibition at 280.212 g/ha [29]: 20%; inhibition at 280.212 g/ha [30]: 60%; inhibition at 280.212 g/ha [31]: 65%
2 | CCOC(=O)C(C)OC(=O)c1cc(-c2nn(C)c(C(F)(F)F)c2C)c(F)cc1Cl (stereo not shown) [Compound 20] | 100 | 0 | 25 | 65 | 95 | 80% | 98 | 70 | 95 | 15 | 100 | 100 | 100 | 35 | 98 | 22 | 45 | 40 | 100 | 90 | inhibition at 280.212 g/ha [32]: 5%; inhibition at 280.212 g/ha [33]: 55%; % plant inhibition [10]: 10%; % plant inhibition [34]: 70%; inhibition at 280.212 g/ha ([34]; Ipomoea, pre-emergence, read-out: % plant inhibition): 85%; inhibition at 280.212 g/ha [22]: 80%; inhibition at 280.212 g/ha [23]: 75%; inhibition at 280.212 g/ha [24]: 35%; inhibition at 280.212 g/ha [25]: 25%; inhibition at 280.212 g/ha [26]: 8%; inhibition at 280.212 g/ha [27]: 85%; inhibition at 280.212 g/ha [28]: 98%; inhibition at 280.212 g/ha [29]: 25%; inhibition at 280.212 g/ha [30]: 100%; inhibition at 280.212 g/ha [31]: 95%

— US5672715A, “Herbicidal substituted 3-aryl-pyrazoles” (Monsanto Company, priority 1995, dated 1997)
